Source: patent publication EP1068184B1, “N-ARYLOXYETHYLAMINE DERIVATIVES FOR THE TREATMENT OF DEPRESSION” (Wyeth, priority 1998, dated 1999)
Read-outs that look alike come from different tables or passages of the source.

Legend:
[1] = target: T1, human 5-HT1A receptor subtype (Homo sapiens, UniProt P08908); test: 5-HT1A receptor binding assay with [3H]8-OH-DPAT on membranes of 5-HT1A.CHO cells; details: for Ki: [3H]8-OH-DPAT 1.5 nM, CHO cell membranes; for 5-HT1A (% @1000nM) / 5-HT1A (% @10nM): given instead of a Ki
T1 construct: expressed in transfected cells
T1 sequence (P08908 1-422): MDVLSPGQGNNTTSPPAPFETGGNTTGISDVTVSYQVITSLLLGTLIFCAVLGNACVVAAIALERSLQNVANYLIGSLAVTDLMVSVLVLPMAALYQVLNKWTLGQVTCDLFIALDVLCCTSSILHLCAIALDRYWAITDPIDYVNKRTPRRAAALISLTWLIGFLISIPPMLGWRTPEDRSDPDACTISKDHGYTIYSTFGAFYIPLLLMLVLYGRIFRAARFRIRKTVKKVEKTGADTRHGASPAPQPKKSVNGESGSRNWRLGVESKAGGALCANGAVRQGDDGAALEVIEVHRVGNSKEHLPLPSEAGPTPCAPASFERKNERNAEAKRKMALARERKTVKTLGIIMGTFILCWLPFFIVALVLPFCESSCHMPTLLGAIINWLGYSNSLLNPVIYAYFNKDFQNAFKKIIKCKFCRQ
Experimental: (§1) The PCR cloning of the human 5-HT1A receptor subtype from a human genomic library has been described previously Chanda et al., Mol. Pharmacol., 43:516 (1993). A stable Chinese hamster ovary cell line expressing the human 5-HT1A receptor subtype (5-HT1A.CHO cells) was employed throughout this study. Cells were maintained in DMEM supplemented with 10% foetal calf serum, non-essential amino acids and penicillin/ streptomycin.
Cells were grown to 95-100% confluency as a monolayer before membranes were harvested for binding studies. Cells were gently scraped from the culture plates, transferred to centrifuge tubes, and washed twice by centrifugation (2000 rpm for 10 min., 4°C) in buffer (50 mM Tris; pH 7.5). The resulting pellets were aliquoted and placed at -80°C. On the day of assay, the cells were thawed on ice, and resuspended in buffer. Studies were conducted using [^3H]8-OH-DPAT as the radioligand. The binding assay was performed in 96 well microtiter plates in a final total volume of 250 µL of buffer. Competition experiments were performed by using 7 concentrations of unlabelled drug and a final ligand concentration of 1.5 nM . Non-specific binding was determined in the presence of 10 µM 5HT. Saturation analysis was conducted by using [^3H]8-OH-DPAT at concentrations ranging from 0.3-30 nM. Following a 30 minute incubation at room temperature, the reaction was terminated by the addition of ice cold buffer and rapid filtration using a M-96 Brandel Cell Harvester (Gaithersburg, MD) through a GF/B filter presoaked for 30 minutes in 0.5% polyethyleneimine.

serotonin transporter = target: T2, serotonin transporter (Rattus norvegicus, UniProt P31652); test: serotonin transporter affinity, 3H-paroxetine binding to frontal cortical membranes; design: species or system male Sprague-Dawley rats
T2 construct: frontal cortical membranes prepared from male Sprague-Dawley rats; from tissue; host or cells: rat frontal cortex membranes
T2 sequence (P31652 whole entry): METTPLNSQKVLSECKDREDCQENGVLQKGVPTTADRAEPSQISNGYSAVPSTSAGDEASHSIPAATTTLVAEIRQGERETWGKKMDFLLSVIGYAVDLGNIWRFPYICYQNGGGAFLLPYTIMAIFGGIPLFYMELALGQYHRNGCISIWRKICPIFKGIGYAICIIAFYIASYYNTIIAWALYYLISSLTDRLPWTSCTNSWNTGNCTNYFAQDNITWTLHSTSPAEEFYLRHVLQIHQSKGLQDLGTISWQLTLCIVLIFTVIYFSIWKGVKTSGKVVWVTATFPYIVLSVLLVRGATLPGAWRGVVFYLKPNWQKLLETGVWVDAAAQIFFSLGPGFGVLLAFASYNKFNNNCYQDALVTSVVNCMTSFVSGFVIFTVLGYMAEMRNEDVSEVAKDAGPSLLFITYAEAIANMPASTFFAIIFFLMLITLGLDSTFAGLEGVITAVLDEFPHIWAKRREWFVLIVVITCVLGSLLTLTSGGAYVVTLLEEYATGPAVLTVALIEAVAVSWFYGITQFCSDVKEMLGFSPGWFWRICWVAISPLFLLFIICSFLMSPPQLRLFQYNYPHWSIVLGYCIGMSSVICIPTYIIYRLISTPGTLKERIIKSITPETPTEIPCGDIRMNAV
Experimental: Briefly, frontal cortical membranes prepared from male Sprague-Dawley rats were incubated with ^3H-paroxetine (0.1 nM) for 60 min at 25°C. All tubes also contained either vehicle, test compound (one to eight concentrations), or a saturating concentration of fluoxetine (10 µM) to define specific binding. All reactions are terminated by the addition of ice cold Tris buffer followed by rapid filtration using a Tom Tech filtration device to separate bound from free ^3H-paroxetine.

[2] = target: T1, human 5-HT1A receptor subtype; test: cAMP formation in forskolin-treated cells (cAMP SPA assay); assay type: cell-based; details: forskolin 1 uM, 10 min at 37°C
Experimental: as §1
The following assays were performed by incubating the cells with DMEM containing 25 mM HEPES, 5 mM theophylline and 10 µM pargyline for a period of 20 minutes at 37°C. Functional activity was assessed by treating the cells with forskolin (1 uM final concentration) followed immediately by test compound (6 concentrations) for an additional 10 min at 37°C. In separate experiments, 6 concentrations of antagonist were preincubated for 20 min prior to the addition of 10 nM 8-OH-DPAT and forskolin. The reaction was terminated by removal of the media and addition of 0.5 ml ice cold assay buffer. Plates were stored at -20°C prior to assessment of cAMP formation by a cAMP SPA assay (Amersham).

5-HT1A cloned receptor = target: T3, 5-HT1A cloned receptor (Homo sapiens, UniProt P08908); test: [35S]-GTPγS binding assay on 5-HT1A cloned receptor membrane fragments; assay type: biochemical; details: maximum agonist response defined by excess 8-OH-DPAT
T3 construct: expressed in transfected cells
T3 sequence (P08908 1-422): T1 sequence (P08908 1-422)
Experimental: The [^35S]-GTPγS binding assay was similar to that used by Lazareno and Birdsall, Br. J. Pharmacol. 109:1120 (1993). Briefly, 5-HT1A cloned receptor membrane fragments (as used for 5-HT1A receptor binding assays) were stored at -70 °C until needed. When needed, membranes were rapidly thawed, centrifuged at 40,000 x g for 10 minutes and resuspended at 4 °C for 10 minutes in assay buffer (25 mM HEPES, 3 mM MgCl2, 100 mM NaCI, 1 mM EDTA, 10 uM GDP, […] DTT, pH 8.0). These membranes were then incubated for 30 min at 30 °C with [^35S]GTPgS (1 nM) in the presence of vehicle, test compound (one to eight concentrations), or excess 8-OH-DPAT to define maximum agonist response. All reactions are terminated by the addition of ice cold Tris buffer followed by rapid filtration using a Tom Tech® filtration device to separate bound from free [^35S]GTPgS. Agonists produce an increase in the amount of [^35S]GTPgS bound whereas antagonists produce no increase in binding. Bound radioactivity was counted and analyzed as above.

[3] = 3H-paroxetine 0.1 nM, rat frontal cortical membranes, read-out: ST (Ki)

SMILES | Ki [1] | Ki (serotonin transporter; [3]) | Emax (5-HT1A cloned receptor) | also measured
COc1ccccc1OCCN[C@H]1CC[C@@H](c2c[nH]c3ccc(F)cc32)CC1 [Example 1a, [(cis)-4-(5-Fluoro-1H-indol-3-yl)-cyclohexyl]-[2-(2-methoxy-phenoxy)-ethyl]-amine] | 307 nM |  |  | 
COc1ccccc1OCCN[C@H]1CC[C@H](c2c[nH]c3ccc(F)cc32)CC1 [Example 1b, [(trans)-4-(5-Fluoro-1H-indol-3-yl)-cyclohexyl]-[2-(2-methoxy-phenoxy)-ethyl]-amine] | 22.4 nM |  |  | 
COc1ccc(F)cc1OCCN[C@H]1CC[C@@H](c2c[nH]c3cc(F)ccc32)CC1 [Example 2a, [(1,4-cis)-4-(6-Fluoro-1H-indol-3-yl)-cyclohexyl]-[2-(5-fluoro-2-methoxy-phenoxy)-ethyl]-amine] | 996 nM | 1.19 nM |  | 
Fc1ccc2[nH]cc([C@H]3CC[C@@H](NCCOc4cccc5[nH]ccc45)CC3)c2c1 [Example 3a] | 147 nM | 26 nM |  | 
Fc1ccc2[nH]cc([C@H]3CC[C@@H](NCCOc4cccc5c4OCCO5)CC3)c2c1 [Example 4a] | 484 nM | 18 nM |  | 
Fc1ccc2[nH]cc([C@H]3CC[C@H](NCCOc4cccc5c4OCCO5)CC3)c2c1 [Example 4b] | 18.9 nM | 1.12 nM |  | Emax [2]: 61%
Fc1ccc2c(c1)[nH]cc2[C@H]1CC[C@@H](NCCOc2cccc3c2OCCO3)CC1 [Example 4c] | 353 nM | 6.37 nM |  | 
Fc1ccc2c(c1)[nH]cc2[C@H]1CC[C@H](NCCOc2cccc3c2OCCO3)CC1 [Example 4d] | 16.7 nM | 0.21 nM | 74.8% | 
Fc1cc2c(c(OCCN[C@H]3CC[C@@H](c4c[nH]c5ccc(F)cc54)CC3)c1)OCCC2 [Example 5a, [2-(6-Fluoro-chroman-8-yloxy)-ethyl]-[(1,4-cis)-4-(5-fluoro-1H -indol-3-yl)-cyclohexyl]-amine] |  | 13 nM |  | 5-HT1A (% @1000nM) [1]: 49%@1000nM
Cn1cc([C@H]2CC[C@@H](NCCOc3cc(F)cc4c3OCCC4)CC2)c2cc(C#N)ccc21 [Example 5c, 3-{(1,4-cis)-4-[2-(6-Fluoro-chroman-8-yloxy)-ethylamino]-cyclohexyl}-1-methyl-1H-indole-5-carbonitrile] |  | 0.53 nM |  | 5-HT1A (% @1000nM) [1]: 47%@1000nM
Cn1cc([C@H]2CC[C@H](NCCOc3cc(F)cc4c3OCCC4)CC2)c2cc(C#N)ccc21 [Example 5d, 3-{(1,4-cis)-4-[2-(6-Fluoro-chroman-8-yloxy)-ethylamino]-cyclohexyl}-1-methyl-1H-indole-5-carbonitrile] | 24 nM | 21.4 nM |  | 
N#Cc1ccc2[nH]cc([C@H]3CC[C@@H](NCCOc4cc(F)cc5c4OCCC5)CC3)c2c1 [Example 5e, 3-{(1,4-cis)-4-[2-(6-Fluoro-chroman-8-yloxy)-ethylamino]-cyclohexyl}-1H-indole-5-carbonitrile] | 385 nM | 2.74 nM |  | 
N#Cc1ccc2[nH]cc([C@H]3CC[C@@H](NCCOc4cc(F)cc5c4OCC5)CC3)c2c1 [Example 6a] |  | 1.07 nM |  | 5-HT1A (% @1000nM) [1]: 49%@1000nM
N#Cc1ccc2[nH]cc([C@H]3CC[C@H](NCCOc4cc(F)cc5c4OCC5)CC3)c2c1 [Example 6b] | 23.5 nM | 1.53 nM |  | 
Fc1cc(OCCN[C@H]2CC[C@@H](c3c[nH]c4ccc(F)cc43)CC2)c2occc2c1 [Example 7a, [2-(5-Fluoro-benzofuran-7-yloxy)-ethyl]-[(1,4-cis)-4-(5-fluoro-1H -indol-3-yl)-cyclohexyl]-amine] | 146 nM |  |  | 
Fc1cc(OCCN[C@H]2CC[C@H](c3c[nH]c4ccc(F)cc43)CC2)c2occc2c1 [Example 7b, [2-(5-Fluoro-benzofuran-7-yloxy)-ethyl]-[(1,4-trans)-4-(5-fluoro-1H -indol-3-yl)-cyclohexyl]-amine] | 18.8 nM |  |  | 
Fc1ccc2[nH]cc([C@H]3CC[C@H](NCCOc4cc(Cl)cc5[nH]cnc45)CC3)c2c1 [Example 8a, [2-(6-Chloro-1H-benzoimidazol-4-yloxy)-ethyl]-[(1,4-trans)-4-(5-fluoro-1H-indol-3-yl)-cyclohexyl]-amine] | 12.7 nM | 1.6 nM | 0% | 
COc1cc(F)ccc1OCCN[C@H]1CC[C@@H](c2c[nH]c3ccc(F)cc32)CC1 [Example 9a, [(1,4-cis)-4-(5-Fluoro-1H-indol-3-yl)-cyclohexyl]-[2-(4-fluoro-2-methoxy-phenoxy)-ethyl]-amine] |  | 1.76 nM | 45% | 5-HT1A (% @10nM) [1]: 16%@10nM
COc1cc(F)ccc1OCCN[C@H]1CC[C@H](c2c[nH]c3ccc(F)cc32)CC1 [Example 9b, [(1,4-trans)-4-(5-Fluoro-1H-indol-3-yl)-cyclohexyl]-[2-(4-fluoro-2-methoxy-phenoxy)-ethyl]-amine] | 78.3 nM | 3.28 nM | 39.5% | 
COc1ccccc1OCCNCC1CCC(c2c[nH]c3ccc(C#N)cc23)CC1 (stereo not drawn) [Example 10b, 3-(4-{[2-(Methoxy-phenoxy)-ethylamino]-methyl}-cyclohexyl)-1H-indole-5-carbonitrile] |  | 1.53 nM |  | 5-HT1A (% @10nM) [1]: 7%@10nM
COc1cc(F)c(F)cc1OCCN[C@H]1CC[C@@H](c2c[nH]c3ccc(F)cc32)CC1 [Example 11a, (1,4-cis)-[2-(4,5-Difluoro-2-methoxy-phenoxy)-ethyl]-[4-(5-fluoro-1H-indol-3-yl)-cyclohexyl]-amine] |  |  | 0% | 5-HT1A (% @10nM) [1]: 0%@10nM; Ki (serotonin transporter): 1.7 nM
COc1cc(F)c(F)cc1OCCN[C@H]1CC[C@H](c2c[nH]c3ccc(F)cc32)CC1 [Example 11b, (1,4-trans)-[2-(4,5-Difluoro-2-methoxy-phenoxy)-ethyl]-[4-(5-fluoro-1H-indol-3-yl)-cyclohexyl]-amine] | 24.9 nM |  | 0% | Ki (serotonin transporter): 0.7 nM
COc1cc(S(C)(=O)=O)c(F)cc1OCCN[C@H]1CC[C@H](c2c[nH]c3ccc(F)cc32)CC1 [Example 12, [(1,4-trans)-4-(5-Fluoro-1H-indol-3-yl)-cyclohexyl]-[2-(5-fluoro-4-methanesulfonyl-2-methoxy-phenoxy)-ethyl]-amine] |  |  | 0% | 5-HT1A (% @10nM) [1]: 0%@10nM; Ki (serotonin transporter): 0.47 nM
OC1(CNCCOc2cccc3[nH]ccc23)CCC(c2c[nH]c3ccc(F)cc23)CC1 (stereo not drawn) [Example 13, (1,4)-4-(5-Fluoro-1H-indol-3-yl)-1-([2-(1H-indol-4-yloxy)-ethylamino]-methyl}-cyclohexanol] |  |  | 85% | 
